The values that follow come from ChEMBL document CHEMBL1201862, “PubChem BioAssay data set” (2004).

The structures appear in SMILES notation.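 Cells were grown in 96-well plates and exposed to each compound for 48 hours at five concentrations; endpoints were interpolated linearly between bracketing concentrations, or set to the highest concentration if not reached. Here, GI50 denotes the concentration required for 50% inhibition of growth.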 Active and inactive are the calls of the source. Rule as the data show it: active = GI50 up to about 1.1 µM and inactive = higher.

Some test systems named below: IGROV-1; SF-268; COLO 205; SN12C; OVCAR-8; OVCAR-5; NCI-H460; Hs-578T; MOLT-4; HCT-116; UACC-62; HCC 2998; UACC-257; MDA-N; K562; 786-0; T47D; KM12; OVCAR-4; RPMI-8226.
What all share (experiment): NCI tumour cell line growth inhibition, 48 h

Take `COc1cccc(-c2nc(O)c3ccccc3n2)c1`: the GI50 is 24.5 µM (inactive) in the experiment with IGROV-1; 19.4 µM (inactive) in the experiment on SF-268; 37.8 µM (inactive) in the experiment on COLO 205; 33.9 µM (inactive) in the experiment with SN12C; 28.4 µM (inactive) with OVCAR-8; 39.4 µM (inactive) with OVCAR-5. For the same molecule, the GI50 with NCI-H460 was 23.2 µM (inactive); in the experiment on Hs-578T it was 19.6 µM (inactive); in the experiment on MOLT-4, 86.5 µM (inactive); in the experiment with HCT-116, 22.5 µM (inactive); in the experiment with UACC-62 it was 20.1 µM (inactive); in the experiment on HCC 2998, 22.3 µM (inactive). In addition, the GI50 with UACC-257 is 21.7 µM (inactive); in the experiment with MDA-N, 17.3 µM (inactive); in the experiment with K562, 38.5 µM (inactive); in the experiment on 786-0 it was 14.9 µM (inactive); in the experiment with T47D, 21.8 µM (inactive); in the experiment on KM12 it was 25 µM (inactive).
As for `CC1=CC=CC(C)(C)CC1(O[Si](C)(C)C)C(F)(F)F` (stereo not given), the GI50 with IGROV-1 is 26.6 µM (inactive); in the experiment with SF-268 it was > 100 µM (inactive); with COLO 205, 72.3 µM (inactive); in the experiment with SN12C it was > 100 µM (inactive); in the experiment with OVCAR-8, > 100 µM (inactive); in the experiment with OVCAR-5, > 100 µM (inactive). Besides, the GI50 in the experiment on NCI-H460, with Hs-578T, in the experiment on HCT-116, in the experiment on UACC-62, in the experiment with HCC 2998 and in the experiment on UACC-257 was > 100 µM (inactive) in each case. The GI50 in the experiment on OVCAR-4 was > 100 µM (inactive); in the experiment with MDA-N, > 100 µM (inactive); with K562, 76.4 µM (inactive); with 786-0, > 100 µM (inactive); in the experiment on RPMI-8226 it was > 100 µM (inactive); in the experiment with T47D it was > 100 µM (inactive). In addition, the GI50 in the experiment on KM12 was > 100 µM (inactive).
For the molecule `COC(=O)c1ccccc1C1CN=NC12Cc1c(C)cc(C)cc1C2=O` (stereo not given), the GI50 in the experiment with IGROV-1, with SF-268, in the experiment on COLO 205, in the experiment with SN12C, in the experiment on OVCAR-8 and with OVCAR-5 was > 100 µM (inactive) in each case. For the same molecule, the GI50 in the experiment with NCI-H460, with Hs-578T, in the experiment on MOLT-4, in the experiment on HCT-116, in the experiment with UACC-62 and in the experiment on HCC 2998 was > 100 µM (inactive) throughout. Moreover, the GI50 with UACC-257, in the experiment with OVCAR-4, with MDA-N, in the experiment with K562, in the experiment on 786-0 and in the experiment on T47D was > 100 µM (inactive) throughout. Moreover, the GI50 in the experiment with KM12 is > 100 µM (inactive).
Regarding `Nc1ccc2nc3ccc(N)cc3[n+](-c3ccccc3)c2c1`, the GI50 is 37.3 µM (inactive) in the experiment with IGROV-1; 29 µM (inactive) in the experiment with SF-268; 4.55 µM (inactive) in the experiment on COLO 205; 25.4 µM (inactive) with SN12C; 29.9 µM (inactive) with OVCAR-5; 32.8 µM (inactive) in the experiment with NCI-H460. For the same molecule, the GI50 is 40.6 µM (inactive) in the experiment on Hs-578T; 26.4 µM (inactive) in the experiment with HCT-116; 64.7 µM (inactive) with UACC-62; > 100 µM (inactive) with HCC 2998; 9.27 µM (inactive) in the experiment on UACC-257; > 100 µM (inactive) with OVCAR-4. Besides, the GI50 with MDA-N was 49.8 µM (inactive); in the experiment on K562 it was 69.3 µM (inactive); in the experiment with 786-0, 95.7 µM (inactive); with RPMI-8226, > 100 µM (inactive); in the experiment with T47D it was 7.78 µM (inactive); in the experiment with KM12, 36 µM (inactive).
In the case of `O=c1ccn(C2OC(CO)C(P(=O)(O)O)C2O)c(=O)[nH]1` (stereo not given), the GI50 in the experiment with IGROV-1, with SF-268, in the experiment on SN12C, with OVCAR-8, in the experiment on OVCAR-5 and with NCI-H460 was > 100 µM (inactive) in each case. The GI50 in the experiment with Hs-578T, with MOLT-4, with HCT-116, in the experiment on UACC-62, with HCC 2998 and in the experiment on UACC-257 was > 100 µM (inactive) throughout. Further, the GI50 in the experiment on OVCAR-4, with MDA-N, in the experiment with K562, in the experiment on 786-0, with RPMI-8226 and with T47D was > 100 µM (inactive) in each case. In the experiment with KM12, the GI50 is > 100 µM (inactive).
Regarding `CC(=O)Oc1cc(Cl)c(C)c2c1[C@H]1CC[C@]3(C)[C@@H](OC(C)=O)CC[C@H]3[C@@H]1CC2`, the GI50 in the experiment on IGROV-1, with SF-268, in the experiment on SN12C, with OVCAR-8, in the experiment with OVCAR-5 and with NCI-H460 was > 100 µM (inactive) each time. The GI50 was > 100 µM (inactive) with Hs-578T; 78.2 µM (inactive) in the experiment with MOLT-4; 54.6 µM (inactive) in the experiment with HCT-116; 35 µM (inactive) with UACC-62; > 100 µM (inactive) with HCC 2998; > 100 µM (inactive) in the experiment with UACC-257. Besides, the GI50 with MDA-N is > 100 µM (inactive); with K562, 78.5 µM (inactive); in the experiment with 786-0 it was > 100 µM (inactive); with RPMI-8226, 29.5 µM (inactive); in the experiment with T47D, 83.2 µM (inactive); with KM12, > 100 µM (inactive).
For the molecule `CC(C)N(C(C)C)S(=O)(=O)CC12CCC(C/C1=N\O)C2` (stereo not given), the GI50 in the experiment on IGROV-1, in the experiment on SF-268, in the experiment on COLO 205, with SN12C, with OVCAR-8 and in the experiment on OVCAR-5 was > 100 µM (inactive) in each case. Further, the GI50 in the experiment with NCI-H460, in the experiment with Hs-578T, with MOLT-4, in the experiment with HCT-116, in the experiment on UACC-62 and with HCC 2998 was > 100 µM (inactive) throughout. Also, the GI50 in the experiment with UACC-257, in the experiment with OVCAR-4, with MDA-N, with K562, with 786-0 and in the experiment with T47D was > 100 µM (inactive) each time. In addition, in the experiment on KM12, the GI50 was > 100 µM (inactive).
For `O=C(O)CN(CC(=O)O)Cc1ccn(-c2cccc(-n3ccc(CN(CC(=O)O)CC(=O)O)n3)n2)n1`, the GI50 in the experiment with IGROV-1, in the experiment on SF-268, in the experiment with COLO 205, with SN12C, with OVCAR-8 and with OVCAR-5 was > 100 µM (inactive) in each case. Besides, the GI50 in the experiment on NCI-H460, with Hs-578T, in the experiment with MOLT-4, in the experiment with HCT-116, in the experiment on UACC-62 and with HCC 2998 was > 100 µM (inactive) throughout. Moreover, the GI50 in the experiment on UACC-257, in the experiment on MDA-N, in the experiment on 786-0, in the experiment on RPMI-8226, in the experiment on T47D and in the experiment with KM12 was > 100 µM (inactive) each time.
In the case of `Nc1nc(N)c2c(n1)NC(c1ccccc1)CC(/C=C/c1ccc(Cl)cc1)=N2` (stereo not given), the GI50 is 2.72 µM (inactive) with IGROV-1; 15.3 µM (inactive) with SF-268; 2.7 µM (inactive) in the experiment with COLO 205; 8.89 µM (inactive) in the experiment on SN12C; 5.28 µM (inactive) with OVCAR-8; 17 µM (inactive) with OVCAR-5. In addition, the GI50 with NCI-H460 is 4.41 µM (inactive); in the experiment on Hs-578T, 2.95 µM (inactive); with MOLT-4, 1.89 µM (inactive); with HCT-116 it was 1.99 µM (inactive); in the experiment on UACC-62, 11.6 µM (inactive); in the experiment on UACC-257 it was 2.25 µM (inactive). Besides, the GI50 in the experiment with OVCAR-4 was 6.41 µM (inactive); with MDA-N, 5.55 µM (inactive); with K562, 2.65 µM (inactive); in the experiment with 786-0, 3.11 µM (inactive); in the experiment with RPMI-8226 it was 3.12 µM (inactive); in the experiment with T47D, 5.83 µM (inactive). In addition, in the experiment on KM12, the GI50 is 3.52 µM (inactive).
Consider `CC(CO)CCNc1ncnc2c1ncn2CCC(=O)O` (stereo not given), for which the GI50 in the experiment on IGROV-1, in the experiment on SF-268, in the experiment on COLO 205, with SN12C, in the experiment with OVCAR-8 and in the experiment on OVCAR-5 was > 100 µM (inactive) in each case. Further, the GI50 in the experiment with NCI-H460, in the experiment on Hs-578T, in the experiment with MOLT-4, in the experiment with HCT-116, with UACC-62 and in the experiment with UACC-257 was > 100 µM (inactive) in each case. Also, the GI50 in the experiment on OVCAR-4, with MDA-N, with K562, in the experiment with 786-0, in the experiment on RPMI-8226 and in the experiment on T47D was > 100 µM (inactive) in each case. For the same molecule, the GI50 in the experiment on KM12 was > 100 µM (inactive).
For the molecule `CSc1ccc2c(c1)c(CCN)c(C)n2Cc1ccccc1Cl`, the GI50 with IGROV-1 was 1.61 µM (inactive); with SF-268, 1.76 µM (inactive); in the experiment on COLO 205 it was 1.67 µM (inactive); with SN12C, 1.58 µM (inactive); in the experiment on OVCAR-8, 1.79 µM (inactive); in the experiment on OVCAR-5 it was 1.85 µM (inactive). For the same molecule, the GI50 in the experiment on NCI-H460 is 1.55 µM (inactive); with Hs-578T it was 1.67 µM (inactive); in the experiment on HCT-116, 1.63 µM (inactive); with UACC-62 it was 1.65 µM (inactive); with HCC 2998, 0.74 µM (active); in the experiment with UACC-257 it was 1.73 µM (inactive). For the same molecule, the GI50 in the experiment on OVCAR-4 was 1.73 µM (inactive); in the experiment on MDA-N, 1.64 µM (inactive); with K562 it was 1.69 µM (inactive); in the experiment with 786-0, 1.72 µM (inactive); with RPMI-8226, 1.42 µM (inactive); with T47D, 1.57 µM (inactive). Also, in the experiment on KM12, the GI50 is 1.82 µM (inactive).
